Values quoted from earlier work in article PMC12591484 (PLOS One, 2025).

Key:
[1] = biological target: T1, α1β3γ2I242C GABAA receptors (Homo sapiens, UniProt P14867+P18507+P28472, I281C); parameters: key: +: Mutant-function studies are deemed positive when bulky mutations (mostly tryptophans) at the site significantly reduce positive modulation by anesthetics; -: Negative results are indicated by “–“ symbols; settings: previously reported; cited from earlier work
T1 construct: expressed in transfected cells; host or cells: Xenopus oocytes injected with capped mRNAs mixed 1α:1β:5γ

[2] = tested on: α1β3γ2L GABAA receptors, substituted cysteine at β3M227 (β3– M1); parameters: key: +: SCAMP is Substituted Cysteine Modification and Protection and is positive when adding anesthetic to cysteine modifier significantly reduces persistent post-exposure effects due to covalent modification; -: Negative results are indicated by “–“ symbols; settings: previously reported; cited from earlier work

T1 sequence (P14867 28-456): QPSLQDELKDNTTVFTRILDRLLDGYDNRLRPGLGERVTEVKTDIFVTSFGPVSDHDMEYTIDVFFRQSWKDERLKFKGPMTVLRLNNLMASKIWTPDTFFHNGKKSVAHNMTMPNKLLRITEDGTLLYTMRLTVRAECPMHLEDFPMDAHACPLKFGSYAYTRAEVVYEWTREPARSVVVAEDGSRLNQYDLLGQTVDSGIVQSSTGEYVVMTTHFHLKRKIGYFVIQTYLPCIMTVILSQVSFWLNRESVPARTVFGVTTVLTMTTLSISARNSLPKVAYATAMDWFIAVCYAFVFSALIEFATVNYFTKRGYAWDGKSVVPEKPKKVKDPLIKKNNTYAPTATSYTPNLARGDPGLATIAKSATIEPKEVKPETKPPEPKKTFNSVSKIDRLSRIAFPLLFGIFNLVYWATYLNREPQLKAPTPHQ
T1 sequence (P28472 26-473): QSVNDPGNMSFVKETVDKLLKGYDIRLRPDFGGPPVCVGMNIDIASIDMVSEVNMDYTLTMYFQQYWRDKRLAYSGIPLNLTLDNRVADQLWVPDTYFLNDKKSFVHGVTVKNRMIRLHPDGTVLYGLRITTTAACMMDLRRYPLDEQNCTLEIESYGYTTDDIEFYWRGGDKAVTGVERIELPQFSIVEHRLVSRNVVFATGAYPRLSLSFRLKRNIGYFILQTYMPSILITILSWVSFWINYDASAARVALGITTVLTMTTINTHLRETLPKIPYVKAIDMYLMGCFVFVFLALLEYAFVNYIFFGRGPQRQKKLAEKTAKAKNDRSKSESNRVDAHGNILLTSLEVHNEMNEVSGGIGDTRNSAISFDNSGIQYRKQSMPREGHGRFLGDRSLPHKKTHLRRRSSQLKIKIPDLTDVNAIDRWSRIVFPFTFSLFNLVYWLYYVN
T1 sequence (P18507 40-475 I281C): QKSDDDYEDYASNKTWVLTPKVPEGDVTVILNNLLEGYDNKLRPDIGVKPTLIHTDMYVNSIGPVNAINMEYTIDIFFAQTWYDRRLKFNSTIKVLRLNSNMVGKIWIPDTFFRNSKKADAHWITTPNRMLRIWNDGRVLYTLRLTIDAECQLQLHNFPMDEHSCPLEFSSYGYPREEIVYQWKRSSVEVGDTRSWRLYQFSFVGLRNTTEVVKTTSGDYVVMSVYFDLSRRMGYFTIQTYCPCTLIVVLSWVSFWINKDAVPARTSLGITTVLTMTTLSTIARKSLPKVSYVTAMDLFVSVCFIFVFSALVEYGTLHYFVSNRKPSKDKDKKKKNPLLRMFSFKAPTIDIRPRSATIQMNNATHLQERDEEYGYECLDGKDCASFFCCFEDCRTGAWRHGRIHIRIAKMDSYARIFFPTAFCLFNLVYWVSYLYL

Q: For `C=CCC1(c2cccc(C3(C(F)(F)F)N=N3)c2)C(=O)NC(=O)N(C)C1=O` (centres unmarked) [R-mTFD-MPAB, R-5-allyl-1-methyl-5-(m-trifluoromethyl-diazirynylphenyl) barbituric acid], which “SCAMP result, γ2– (M1) I242” value [1] is on record?
A: -^[9]

Q: And the “SCAMP result, β3– (M1) M227” value [2]?
A: +^[9]
